“Also recorded” adds a separate entry of the source.

The nature of assay [1]: Ferric reducing antioxidant power (FRAP) assay. Also on record: key to FRAP TEAC: trolox equivalents (TEAC), relative to trolox. Conditions: for FRAP TEAC: 30 µM, relative to trolox; for FRAP nmol Fe2+ at 30 µM: 30 µM compound, n in brackets. As to the method:
A ferric reducing antioxidant power (FRAP) kit assay purchased from Sigma-Aldrich (Madrid, Spain) was employed for the experiments. The antioxidant solutions, FRAP assay buffer solution, FeCl3 solution, and FRAP probe solution were kept in ice during the preparation of the plate. A calibration standard curve was prepared by using the 2 mM ferrous standard solution provided in the FRAP kit assay. Appropriate aliquots of this solution were taken and diluted up to a 200 μL final volume with FRAP buffer. The final ferrous concentrations measured in the well were: 0, 20, 40, 60, 80, and 100 μM. Each concentration value was prepared and measured by triplicate. Stock solutions of compounds 3, as well as reference compounds trolox and ferulic acid, were freshly prepared in 95% ethanol at […]. Aliquots of 10 μL of compounds 3 and the reference compounds were mixed with 19 μL FeCl3 solution and 19 μL FRAP probe solution, and then completed to a final volume of 200 μL with FRAP assay buffer solution. The final concentration of antioxidants and references was 30 μM. Compounds 3, reference compounds, as well as the corresponding blank solutions (one for each compound to be assayed, avoiding the chromogenic FRAP probe), and positive control were thoroughly mixed in vortex for 1–2 min with the reaction chromogenic media, and then were incubated under darkness at 37 °C in the dry bath, and using the device for support well-plates. Each compound to be assayed and the reference antioxidant compounds were prepared and measured by triplicate. The absorbance values were measured at 594 nm after 5 min of reaction and, to assure complete reaction, the absorbance values after 60 min of incubation at 37 °C in the dry bath were also measured. The absorbance values of the sample antioxidant compounds were corrected by subtracting the corresponding absorbance values of the blanks, and then they were introduced in the calibration curve and the ferrous equivalents were determined. The reference antioxidants employed for this assay were trolox and ferulic acid, which were obtained from Sigma-Aldrich (Madrid, Spain). Ultrapure water was obtained from a Milli-Q Direct 8 system (Millipore, Molsheim, France).
In order to achieve a broader insight into the antioxidant profile of our compounds, we also examined them using a single electron transfer (SET)-based method, namely the ferric reducing antioxidant power (FRAP) assay, which measures the ability of an antioxidant to reduce the ferric ion in the TPTZ (2,4,6-tri(2-pyridyl)-1,3,5-triazine)-Fe(III) complex.

Assay [2] deals with AChE (Electrophorus electricus) (Electrophorus electricus, UniProt O42275). Put plainly: Acetylcholinesterase inhibition (Ellman's method). Particulars: for inhibition at 10 µM: 10 μM compound, read-out: % Inhibition of EeAChE at 10 μM; for IC50: n in brackets, read-out: IC50 (EeAChE). The format is biochemical. As to the method:
Ellman’s method was employed to determine the inhibitory capacity of the compounds against AChE (Electrophorus electricus). The compounds were studied at 10 μM concentration, at room temperature, using PBS (0.1 M, pH 8) as solvent. Transparent 48-well microplates (COSTAR 3548) were used and, in each one, a blank was included. The compounds were incubated with the enzyme (0.09 U/mL) and with DTNB (0.35 mM) for 10 min. Afterwards, the enzyme substrate acetylthiocholine (0.35 mM) was added to a final volume of 1 mL. The microplate was incubated at room temperature for 15 min. Then, the absorbance was measured at 420 nm using the microplate reader FluoStar Optima (BMG Labtech, Ortenberg, Baden-Württemberg, Germany). The enzymatic activity was calculated by subtracting the blank absorbance from the sample absorbance and dividing the result by the absorbance of the maximum activity subtracted from blank absorbance, and the result was multiplied by one hundred to give a percentage. The inhibitory activity was calculated by subtracting the enzymatic activity from one hundred. Selected compounds were assayed at 0.3, 1, 3, 10, and 30 μM concentrations to obtain inhibition curves. The results were plotted versus concentration to obtain IC50 values through sigmoidal non-lineal adjustment. All the experiments were performed at least in triplicate.
Bisavenanthramide B-6 and heliotropamide A have been identified as acetylcholinesterase inhibitors. This precedent, coupled with our interest in the potential characterization of our compounds as multitarget-directed ligands, led us to investigate them as inhibitors of this enzyme, an important anti-Alzheimer target.
For orientation: Ellman's reagent forms a yellow product with free thiols.

Assay [3] deals with SH-SY5Y cells. In words: Neuroprotection against okadaic acid in SH-SY5Y cells (MTT). The format is cell-based. Conditions: for % neuroprotection against okadaic acid at 1 µM: Homo sapiens, SH-SY5Y, 18 h, 1 µM compound, okadaic acid 20 nM, read-out: % Neuroprotection ± SEM at 1 µM (okadaic acid). As to the method: Neuroprotection studies against tau hyperphosphorylation exerted by okadaic acid (OA) were evaluated using the SH-SY5Y cell line as follows. […] After 18 h, cell viability was addressed by the MTT reduction method. MTT (5 mg/mL, 10 μL/well) was added and incubated for 2 h. Then, the medium was removed and the purple formazan crystals formed by viable cells were dissolved using 100 μL of DMSO. A FluoStar Optima spectrophotometer (BMG Labtech, Ortenberg, Baden-Württemberg, Germany) was used to measure the absorbance at 570 nm.
Okadaic acid is a potent inhibitor of protein phosphatase 2A (PP2A), thereby inducing tau hyperphosphorylation. For this reason, it can be employed as a model of neurodegenerative-disease-connected tau hyperphosphorylation, a well-known feature of Alzheimer’s disease, but present also in other NDDs, collectively known as tauopathies and characterized by the pathological aggregation of hyperphosphorylated tau in neurofibrillary tangles. […] Tau hyperphosphorylation is connected to oxidative stress, which activates p38 and deactivates calcineurin, a phosphatase involved in tau dephosphorylation by increasing RCAN1, its natural repressor [34, 35]. Indeed, hyperphosphorylation and oxidative stress have been proposed to generate a vicious circle that is critical to the advance of neurodegenerative tauopathies.

Sequence of AChE (Electrophorus electricus) (O42275 24-633): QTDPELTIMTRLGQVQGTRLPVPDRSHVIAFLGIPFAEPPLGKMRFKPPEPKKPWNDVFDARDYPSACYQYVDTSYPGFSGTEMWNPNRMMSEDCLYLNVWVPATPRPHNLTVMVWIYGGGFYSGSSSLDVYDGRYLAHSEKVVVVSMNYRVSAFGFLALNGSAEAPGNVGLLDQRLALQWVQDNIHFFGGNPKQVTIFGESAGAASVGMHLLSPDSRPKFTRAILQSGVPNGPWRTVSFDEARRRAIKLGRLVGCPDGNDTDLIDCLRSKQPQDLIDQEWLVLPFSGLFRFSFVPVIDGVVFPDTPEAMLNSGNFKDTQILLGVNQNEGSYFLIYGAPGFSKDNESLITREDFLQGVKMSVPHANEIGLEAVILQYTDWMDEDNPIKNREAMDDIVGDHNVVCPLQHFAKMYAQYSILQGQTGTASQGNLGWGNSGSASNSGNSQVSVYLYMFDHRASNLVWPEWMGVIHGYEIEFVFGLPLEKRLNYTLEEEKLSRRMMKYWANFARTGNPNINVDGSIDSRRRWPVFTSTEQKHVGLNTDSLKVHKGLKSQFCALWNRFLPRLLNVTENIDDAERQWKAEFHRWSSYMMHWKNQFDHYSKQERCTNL

As a reminder, the inhibition is the drop in the measured response relative to a control, in per cent. Regarding `COC(=O)C1=C(C)N(Cc2ccccc2)C(=O)/C1=C\c1ccccc1` [Compound 3a, Methyl (Z)-1-Benzyl-4-benzylidene-2-methyl-5-oxo-4,5-dihydro-1H-pyrrole-3-carboxylate], in assay [1], the “FRAP TEAC” value is 0.62. Besides, the inhibition at 10 µM in assay [2] is 27.4%. Further, the % neuroprotection against okadaic acid at 1 µM in assay [3] is 68 ± 22%.
As a reminder, the IC50 is the concentration at which inhibition is half-maximal. As for `COC(=O)C1=C(C)N(Cc2ccccc2)C(=O)/C1=C\c1ccc(OC)cc1` [Compound 3b, Methyl (Z)-1-Benzyl-4-(4-methoxybenzylidene)-2-methyl-5-oxo-4,5-dihydro-1H-pyrrole-3-carboxylate], in assay [1], the “FRAP nmol Fe2+ at 30 µM” value was 1.44 ± 0.02 (3) nmol Fe^2+ and the “FRAP TEAC” value is recorded as 0.63. For the same molecule, in assay [2], the inhibition at 10 µM amounted to 36.7% and the concentration for half-maximal inhibition (IC50) is 29.7 ± 3 µM. The % neuroprotection against okadaic acid at 1 µM in assay [3] turned out to be 54.1 ± 14.3%.
For `COC(=O)C1=C(C)N(Cc2ccccc2)C(=O)/C1=C\c1ccc(Cl)cc1` [Compound 3c, Methyl (Z)-1-Benzyl-4-(4-chlorobenzylidene)-2-methyl-5-oxo-4,5-dihydro-1H-pyrrole-3-carboxylate], in assay [1], the “FRAP nmol Fe2+ at 30 µM” value was 1.41 ± 0.03 (3) nmol Fe^2+ and the “FRAP TEAC” value was 0.62. For the same molecule, the inhibition at 10 µM in assay [2] stood at 33.5%. Besides, the % neuroprotection against okadaic acid at 1 µM in assay [3] was 52.8 ± 9.96%.
Turning to `COC(=O)C1=C(C)N(CCc2ccccc2)C(=O)/C1=C\c1ccc2c(c1)OCO2` [Compound 3d, Methyl (Z)-4-(Benzo[d](1,3)dioxol-5-ylmethylene)-2-methyl-5-oxo-1-phenethyl-4,5-dihydro-1H-pyrrole-3-carboxylate], in assay [1], the “FRAP nmol Fe2+ at 30 µM” value is 1.41 ± 0.04 (3) nmol Fe^2+ and the “FRAP TEAC” value is reported as 0.62. Also, the inhibition at 10 µM in assay [2] was found to be 25.2%. Besides, the % neuroprotection against okadaic acid at 1 µM in assay [3] came out at 52.7 ± 17.2%.
As to `COC(=O)C1=C(C)N(CCc2ccccc2)C(=O)/C1=C\c1ccc(OC)cc1OC` [Compound 3e, Methyl (Z)-4-(2,4-Dimethoxybenzylidene)-2-methyl-5-oxo-1-phenethyl-4,5-dihydro-1H-pyrrole-3-carboxylate], in assay [1], the “FRAP nmol Fe2+ at 30 µM” value is 1.44 ± 0.01 (3) nmol Fe^2+ and the “FRAP TEAC” value worked out at 0.63. In addition, the inhibition at 10 µM in assay [2] stood at 24.3%. For the same molecule, the % neuroprotection against okadaic acid at 1 µM in assay [3] is 62.8 ± 8%.
Turning to `COC(=O)C1=C(C)N(CCc2ccccc2)C(=O)/C1=C\c1cc(OC)c(OC)cc1OC` [Compound 3f, Methyl (Z)-2-Methyl-5-oxo-1-phenethyl-4-(2,4,5-trimethoxybenzylidene)-4,5-dihydro-1H-pyrrole-3-carboxylate], in assay [1], the “FRAP nmol Fe2+ at 30 µM” value is reported as 1.42 ± 0.04 (3) nmol Fe^2+ and the “FRAP TEAC” value was 0.62. The inhibition at 10 µM in assay [2] is 29.3%. Besides, in assay [3], the % neuroprotection against okadaic acid at 1 µM was determined as 48.3 ± 11%.
The matching figures for `COC(=O)C1=C(C)N(CCc2ccccc2)C(=O)/C1=C\c1cc(OC)c(OC)c(OC)c1` [Compound 3g, Methyl (Z)-2-Methyl-5-oxo-1-phenethyl-4-(3,4,5-trimethoxybenzylidene)-4,5-dihydro-1H-pyrrole-3-carboxylate]: 1.36 ± 0.10 (3) nmol Fe^2+, 0.60, 11.6% and 65.7 ± 29.1%.
Regarding `COC(=O)C1=C(C)N(CCc2ccccc2)C(=O)/C1=C\c1ccc(OC)c(O)c1` [Compound 3h, Methyl (Z)-4-(3-Hydroxy-4-methoxybenzylidene)-2-methyl-5-oxo-1-phenethyl-4,5-dihydro-1H-pyrrole-3-carboxylate], in assay [1], the “FRAP nmol Fe2+ at 30 µM” value is given as 1.63 ± 0.04 (3) nmol Fe^2+ and the “FRAP TEAC” value was 0.71. The inhibition at 10 µM in assay [2] came out at 24.2%. For the same molecule, the “level of neuroprotection compared with melatonin / in words (okadaic acid)” value in assay [3] (1 µM) is “excellent neuroprotection”. Besides, the % neuroprotection against okadaic acid at 1 µM in assay [3] was 81.9 ± 28.5%.
On to `COC(=O)C1=C(C)N(CCc2ccccc2)C(=O)/C1=C\c1ccc(O)c(O)c1` [Compound 3i, Methyl (Z)-4-(3,4-Dihydroxybenzylidene)-2-methyl-5-oxo-1-phenethyl-4,5-dihydro-1H-pyrrole-3-carboxylate], for which, in assay [1], the “antioxidant activity in FRAP compared with references” value was “more active than ferulic acid and slightly more active than trolox”; the “FRAP nmol Fe2+ at 30 µM” value is 2.30 ± 0.08 (3) nmol Fe^2+; the “FRAP TEAC” value worked out at 1.01. Also, in assay [2], the inhibition at 10 µM worked out at 27.2%. The “neuroprotective effect against okadaic acid by concentration” value in assay [3] (0.01, 0.1, 1, 10 and 30 µM, OA 20 nM) is “concentration-dependent neuroprotective effect being statistically significant at 1 and 10 µM; also recorded: neuroprotection was lost at 30 µM”. The % neuroprotection against okadaic acid at 1 µM in assay [3] turned out to be 60.9 ± 23.3%.
In the case of `COC(=O)C1=C(C)N(CCc2ccccc2)C(=O)/C1=C\c1ccc(OCc2ccccc2F)c(OC)c1` [Compound 3j, Methyl (Z)-4-[4-((2-Fluorobenzyl)oxy)-3-methoxybenzylidene]-2-methyl-5-oxo-1-phenethyl-4,5-dihydro-1H-pyrrole-3-carboxylate], in assay [1], the “FRAP nmol Fe2+ at 30 µM” value is 1.60 ± 0.04 (3) nmol Fe^2+ and the “FRAP TEAC” value is 0.70. Moreover, the inhibition at 10 µM in assay [2] was determined as 16%. The % neuroprotection against okadaic acid at 1 µM in assay [3] is 31.8 ± 15.2%.
In the case of `COC(=O)C1=C(C)N(CCc2ccccc2)C(=O)/C1=C\c1ccc(OCc2ccccc2Cl)c(OC)c1` [Compound 3k, Methyl (Z)-4-[4-((2-Chlorobenzyl)oxy)-3-methoxybenzylidene]-2-methyl-5-oxo-1-phenethyl-4,5-dihydro-1H-pyrrole-3-carboxylate], in assay [1], the “FRAP nmol Fe2+ at 30 µM” value was 1.63 ± 0.01 (3) nmol Fe^2+ and the “FRAP TEAC” value was 0.71. For the same molecule, in assay [2], the inhibition at 10 µM worked out at 40.1% and the IC50 was found to be 22.4 ± 3.2 µM. In addition, the % neuroprotection against okadaic acid at 1 µM in assay [3] came out at 57.1 ± 22.3%.
For `COC(=O)C1=C(C)N(CCc2ccccc2)C(=O)/C1=C\c1ccc(OCc2ccc(Cl)cc2)c(OC)c1` [Compound 3l, Methyl (Z)-4-[4-((4-Chlorobenzyl)oxy)-3-methoxybenzylidene]-2-methyl-5-oxo-1-phenethyl-4,5-dihydro-1H-pyrrole-3-carboxylate], in assay [1], the “FRAP nmol Fe2+ at 30 µM” value is given as 1.62 ± 0.03 (3) nmol Fe^2+ and the “FRAP TEAC” value is reported as 0.71. In addition, in assay [2], the inhibition at 10 µM is 26.2%. Also, in assay [3], the % neuroprotection against okadaic acid at 1 µM came out at 51.1 ± 18.4%.

Values taken from paper PMC8230565, “Bisavenathramide Analogues as Nrf2 Inductors and Neuroprotectors in In Vitro Models of Oxidative Stress and Hyperphosphorylation” (Antioxidants, 2021).
